According to PMC9241695, “Selective Metal Chelation by a Thiosemicarbazone Derivative Interferes with Mitochondrial Respiration and Ribosome Biogenesis in Candida albicans” (Microbiology Spectrum, 2022):
In brackets after ≈: the same amount, converted by molar mass.

Columns and labels:
[1] = Cytotoxicity testing (MTT); type: cell-based, human; settings: human, HepG2 cells (hepatocellular carcinoma cell line)
[2] = test system: human hepatocellular carcinoma cell line HepG2; assay: Cytotoxicity testing (MTT); type: cell-based; settings: ratio of IC50 against HepG2 to MIC80 against C. albicans SC5314
C. albicans 28A = assay: Microbroth dilution MIC80; type: cell-based; settings: Candida albicans, 28A
Method in brief: (§1)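 CLSI microbroth dilution in RPMI1640 using final drug concentrations of 0.0156–64 μg/mL. C. albicans inoculum was 1 × 10^3 CFU/mL, and Candida plates were incubated at 35°C for 24 h. MIC was read as visible growth inhibition versus the drug-free control, in duplicate.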

C. albicans YEM15 = assay: Microbroth dilution MIC80; type: cell-based; settings: Candida albicans, YEM15
Method in brief: as §1

C. albicans 28I = assay: Microbroth dilution MIC80; type: cell-based; settings: Candida albicans, 28I
Method in brief: as §1

C. albicans 11e = assay: Microbroth dilution MIC80; type: cell-based; settings: Candida albicans, 11E
Method in brief: as §1

C. albicans 28D = assay: Microbroth dilution MIC80; type: cell-based; settings: Candida albicans, 28D
Method in brief: as §1

C. albicans DSY654 = assay: Microbroth dilution MIC80; type: cell-based; settings: Candida albicans
Method in brief: as §1

C. albicans CA4 = assay: Microbroth dilution MIC80; type: cell-based; settings: Candida albicans, CA4
Method in brief: as §1

C. albicans CA3 = assay: Microbroth dilution MIC80; type: cell-based; settings: Candida albicans, CA3
Method in brief: as §1

C. albicans F5 = assay: Microbroth dilution MIC80; type: cell-based; settings: Candida albicans, F5
Method in brief: as §1

C. tropicalis CT2 = assay: Microbroth dilution MIC80; type: cell-based; settings: Candida tropicalis, CT2
Method in brief: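 CLSI microbroth dilution in RPMI1640, inoculum 1 × 10^3 CFU/mL, compounds 0.0156–64 μg/mL final, 24 h at 35 °C. MIC read as visible growth inhibition versus control, in duplicate.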

C. albicans YEM13 = assay: Microbroth dilution MIC80; type: cell-based; settings: Candida albicans
Method in brief: as §1

C. albicans SC5314 cells = assay: ROS production assay (DCFH-DA); type: cell-based, Candida albicans; settings: 6 h, compared with the control
Procedure: ROS production assay. Logarithmic-phase C. albicans SC5314 cells (1 × 10^6 cells/mL in RPMI1640 medium) were incubated in the presence or absence of 19ak for 6 h, followed by incubation with 2′,7′-dichlorofluorescein diacetate (DCFH-DA) in the dark for 30 min. The fluorescence intensity was then measured by flow cytometry, and the data were analyzed with Win MDI 2.9 software. […]

[3] = test system: mitochondrial respiratory chain complex III; assay: Mitochondrial respiratory chain complex activity in isolated mitochondria; type: biochemical, Candida albicans; settings: purified mitochondria, 0.125-1 μg/mL, 6 h
Procedure: (§2) Mitochondrial isolation and detection of mitochondrial respiratory chain complex activity. Mitochondria were isolated from C. albicans spheroplasts as previously described (8). A dilution series of 19ak was added to the mitochondrial suspensions to obtain final concentrations of 0, 0.125, 0.25, 0.5, and 1 μg/mL and incubated for 6 h at 30°C. The activities of mitochondrial respiratory chain complexes I-IV were determined by using the Micro Mitochondrial Respiratory Chain Complex Activity Assay Kit (Solarbio, Beijing, China). The concentration of protein was determined using the BCA Protein Assay Kit (Beyotime, Haimen, China).
(§3) Mitochondrial complex activity was expressed as nmol/min/mg protein. […]

[4] = test system: mitochondrial respiratory chain complex I; assay: as above; type: biochemical, Candida albicans
Procedure: as §2, §3

SMILES: C/C(=N\NC(=S)N(C)C)c1ccccn1 [Compound 19ak]
- IC50 [1]: 10.3 µg/mL (≈ 46.3 µM)
- Selectivity index HepG2 [2]: 82.4
- MIC80 (C. albicans 28A): 0.125 µg/mL (≈ 0.562 µM)
- MIC80 (C. albicans YEM15): 0.25 µg/mL (≈ 1.12 µM)
- MIC80 (C. albicans 28I): 0.125 µg/mL (≈ 0.562 µM)
- MIC80 (C. albicans 11e): 1 µg/mL (≈ 4.5 µM)
- MIC80 (C. albicans 28D): 0.125 µg/mL (≈ 0.562 µM)
- MIC80 (C. albicans DSY654): 0.125 µg/mL (≈ 0.562 µM)
- MIC80 (C. albicans CA4): 0.125 µg/mL (≈ 0.562 µM)
- MIC80 (C. albicans CA3): 0.125 µg/mL (≈ 0.562 µM)
- MIC80 (C. albicans F5): 0.5 µg/mL (≈ 2.25 µM)
- MIC80 (C. tropicalis CT2): 0.5 µg/mL (≈ 2.25 µM)
- MIC80 (C. albicans YEM13): 0.5 µg/mL (≈ 2.25 µM)
- ROS formation (DCFH-DA) (C. albicans SC5314 cells): decreased ROS
- Activity of mitochondrial respiratory chain complex III [3]: slightly inhibited
- Reduction of NADH dehydrogenase activity with extra metal ions ([4]; 100 μM metal ions, 0.125 or 1 μg/mL 19ak): partially restored
- Activity of mitochondrial respiratory chain complex I (CI, NADH dehydrogenase) ([4]; purified mitochondria, 0.125-1 μg/mL, 6 h): significantly inhibited
